Results: patent US20100016388A1, “Salts of a Selective Beta-2 Andrenoceptor Agonist” (priority 2007, published 2010)
Where a name gives a salt, the structure may show the parent alone.

Target: T1, Adrenergic β2 (Homo sapiens, UniProt P07550)
T1 construct: Adherent H292 cells were removed from tissue culture flasks; endogenous in cells; host or cells: H292 cells
Assay: Adrenergic β2 mediated cAMP production in H292 cells (AlphaScreen)
Assay type: cell-based
Conditions: Intrinsic Activity as a fraction relative to the maximum activity determined for formoterol
Experimental: Adrenergic β2 Mediated cAMP Production
H292 cells were grown in 225 cm2 flasks incubator at 37° C., 5% CO2 in RPMI medium containing, 10% (v/v) FBS (foetal bovine serum) and 2 mM L-glutamine.
Adherent H292 cells were removed from tissue culture flasks by treatment with Accutase™ cell detachment solution for 15 minutes. Flasks were incubated for 15 minutes in a humidified incubator at 37° C., 5% CO2. Detached cells were re-suspended in RPMI media (containing 10% (v/v) FBS and 2 mM L-glutamine) at 0.05×10^6 cells per mL. 5000 cells in 100 μL were added to each well of a tissue-culture-treated 96-well plate and the cells incubated overnight in a humidified incubator at 37° C., 5% CO2. The culture media was removed and cells were washed twice with 100 μL assay buffer and replaced with 50 μL assay buffer (HBSS solution containing 10 mM HEPES pH7.4 and 5 mM glucose). […]
The concentration of cAMP (cyclic adenosine monophosphate) in the cell lysate was determined using AlphaScreen™ methodology. […] The AlphaScreen™ signal was measured using an EnVision spectrophotometer (Perkin-Elmer Inc.) with the recommended manufacturer's settings. cAMP concentrations were determined by reference to a calibration curve determined in the same experiment using standard cAMP concentrations. […] Intrinsic Activity was expressed as a fraction relative to the maximum activity determined for formoterol in each experiment.

T1 sequence (P07550 whole entry): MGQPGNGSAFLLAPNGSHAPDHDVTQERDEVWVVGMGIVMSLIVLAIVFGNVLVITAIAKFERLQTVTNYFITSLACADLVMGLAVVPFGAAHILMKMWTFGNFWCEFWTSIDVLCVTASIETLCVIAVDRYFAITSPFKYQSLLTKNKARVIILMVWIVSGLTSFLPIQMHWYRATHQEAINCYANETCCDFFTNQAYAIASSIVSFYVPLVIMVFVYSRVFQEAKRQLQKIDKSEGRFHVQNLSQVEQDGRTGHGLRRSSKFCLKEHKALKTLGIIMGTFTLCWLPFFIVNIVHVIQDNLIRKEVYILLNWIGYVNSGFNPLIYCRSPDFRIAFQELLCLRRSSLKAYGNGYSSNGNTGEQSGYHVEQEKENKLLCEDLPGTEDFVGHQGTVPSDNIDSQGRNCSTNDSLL

O=c1[nH]c2c(O)ccc([C@@H](O)CNCCSCCCNCCc3ccccc3Cl)c2s1 [Compound A, 7-[(1R)-2-({2-[(3-{[2-(2-Chlorophenyl)ethyl]amino}-propyl)thio]ethyl}amino)-1-hydroxyethyl]-4-hydroxy-1,3-benzothiazol-2(3H)-one dihydrobromide]
β2 Int Act: 0.8
